In brackets after ≈: the same amount, converted by molar mass.
Tests used:
Test in all cases: In vitro assay of antibacterial activity (agar dilution MIC)
Assay type in all cases: cell-based
[1] = test system: Klebsiella pneumoniae ATCC 8045; conditions: BHI agar, 35-37 °C, 20 to 24 hours, unit assumed
Procedure: (§1) Representative compounds of the present invention were assayed in vitro for antibacterial activity as follows: Twelve petri dishes containing successive aqueous dilutions of the test compound mixed with 10 mL of sterilized Brain Heart Infusion (BHI) agar (Difco 0418-01-5) were prepared. Each plate was inoculated with 1:100 (or 1:10 for slow-growing strains, such as Micrococcus and Streptococcus) dilutions of up to 32 different microorganisms, using a Steers replicator block. The inoculated plates were incubated at 35-37 °C for 20 to 24 hours, In addition, a control plate, using BHI agar containing no test compound, was prepared and incubated at the beginning and end of each test.
(§2) An additional plate containing a compound having known susceptibility patterns for the organisms being tested and belonging to the same antibiotic class as the test compound was also prepared and incubated as a further control, as well as to provide test-to-test comparability. Erythromycin A was used for this purpose.
(§3) After incubation, each plate was visually inspected. The minimum inhibitory concentration (MIC) was defined as the lowest concentration of drug yielding no growth, a slight haze, or sparsely isolated colonies on the inoculum spot as compared to the growth control. […]

[2] = test system: Escherichia coli H560; conditions: BHI agar, 35-37 °C, 20 to 24 hours, unit assumed
Procedure: as §1, §2, §3

[3] = test system: Staphylococcus aureus NCTC10649M; conditions: BHI agar, 35-37 °C, 20 to 24 hours, unit assumed
Procedure: as §1, §2, §3

[4] = test system: Pseudomonas aeruginosa DPHD-2862; conditions: BHI agar, 35-37 °C, 20 to 24 hours, unit assumed
Procedure: as §1, §2, §3

[5] = test system: Staphylococcus aureus A-5278; conditions: BHI agar, 35-37 °C, 20 to 24 hours, unit assumed
Procedure: as §1, §2, §3

[6] = test system: Escherichia coli DC-2; conditions: BHI agar, 35-37 °C, 20 to 24 hours, unit assumed
Procedure: as §1, §2, §3

[7] = test system: Staphylococcus aureus ATCC 6538P; conditions: BHI agar, 35-37 °C, 20 to 24 hours, unit assumed
Procedure: as §1, §2, §3

[8] = test system: Enterobacter aerogenes ATCC 13048; conditions: BHI agar, 35-37 °C, 20 to 24 hours, unit assumed
Procedure: as §1, §2, §3

[9] = test system: Pseudomonas aeruginosa DPHD-5263; conditions: BHI agar, 35-37 °C, 20 to 24 hours, in µg/mL (unit assumed)
Procedure: as §1, §2, §3

[10] = test system: Pseudomonas aeruginosa BMH10; conditions: BHI agar, 35-37 °C, 20 to 24 hours, in µg/mL (unit assumed)
Procedure: as §1, §2, §3

[11] = test system: Candida albicans CCH 442; conditions: BHI agar, 35-37 °C, 20 to 24 hours, unit assumed
Procedure: as §1, §2, §3

[12] = test system: Pseudomonas capacia 2961; conditions: BHI agar, 35-37 °C, 20 to 24 hours, in µg/mL (unit assumed)
Procedure: as §1, §2, §3

[13] = test system: Escherichia coli JUHL; conditions: BHI agar, 35-37 °C, 20 to 24 hours, in µg/mL (unit assumed)
Procedure: as §1, §2, §3

[14] = test system: Staphylococcus aureus CMX 642A; conditions: BHI agar, 35-37 °C, 20 to 24 hours, unit assumed
Procedure: as §1, §2, §3

[15] = test system: Streptococcus pyogenes 930; conditions: BHI agar, 35-37 °C, 20 to 24 hours, unit assumed
Procedure: as §1, §2, §3

[16] = test system: Pseudomonas aeruginosa K799/61; conditions: BHI agar, 35-37 °C, 20 to 24 hours, unit assumed
Procedure: as §1, §2, §3

[17] = test system: Enterococcus faecium ATCC 8043; conditions: BHI agar, 35-37 °C, 20 to 24 hours, unit assumed
Procedure: as §1, §2, §3

[18] = test system: Staphylococcus aureus 1775; conditions: BHI agar, 35-37 °C, 20 to 24 hours, unit assumed
Procedure: as §1, §2, §3

[19] = test system: Staphylococcus aureus CMX 553; conditions: BHI agar, 35-37 °C, 20 to 24 hours, unit assumed
Procedure: as §1, §2, §3

[20] = test system: Pseudomonas aeruginosa 5007; conditions: BHI agar, 35-37 °C, 20 to 24 hours, unit assumed
Procedure: as §1, §2, §3

[21] = test system: Streptococcus agalactiae CMX 508; conditions: BHI agar, 35-37 °C, 20 to 24 hours, unit assumed
Procedure: as §1, §2, §3

[22] = test system: Pseudomonas aeruginosa K799/WT; conditions: BHI agar, 35-37 °C, 20 to 24 hours, unit assumed
Procedure: as §1, §2, §3

[23] = test system: Escherichia coli KNK 437; conditions: BHI agar, 35-37 °C, 20 to 24 hours, unit assumed
Procedure: as §1, §2, §3

[24] = test system: Escherichia coli SS; conditions: BHI agar, 35-37 °C, 20 to 24 hours, unit assumed
Procedure: as §1, §2, §3

[25] = test system: Micrococcus luteus ATCC 4698; conditions: BHI agar, 35-37 °C, 20 to 24 hours, unit assumed
Procedure: as §1, §2, §3

[26] = test system: Streptococcus bovis A-5169; conditions: BHI agar, 35-37 °C, 20 to 24 hours, unit assumed
Procedure: as §1, §2, §3

[27] = test system: Micrococcus luteus ATCC 9341; conditions: BHI agar, 35-37 °C, 20 to 24 hours, unit assumed
Procedure: as §1, §2, §3

[28] = test system: Staphylococcus epidermidis 3519; conditions: BHI agar, 35-37 °C, 20 to 24 hours, unit assumed
Procedure: as §1, §2, §3

[29] = test system: Streptococcus pyogenes PIU 2548; conditions: BHI agar, 35-37 °C, 20 to 24 hours, unit assumed
Procedure: as §1, §2, §3

[30] = test system: Providencia struartii CMX 640; conditions: BHI agar, 35-37 °C, 20 to 24 hours, unit assumed
Procedure: as §1, §2, §3

[31] = test system: Staphylococcus aureus A5177; conditions: BHI agar, 35-37 °C, 20 to 24 hours, unit assumed
Procedure: as §1
(§4) An additional plate containing a compound having known susceptibility patterns for the organisms being tested and belonging to the same antibiotic class as the test compound was also prepared and incubated as a further control, as well as to provide test-to-test comparability.
as §3

[32] = test system: Streptococcus pyogenes EES61; conditions: BHI agar, 35-37 °C, 20 to 24 hours, unit assumed
Procedure: as §1, §2, §3

[33] = test system: Actinetobacter calcoaceticus CMX 669; conditions: BHI agar, 35-37 °C, 20 to 24 hours, unit assumed
Procedure: as §1, §4, §3

[34] = test system: Mycobacterium smegmatis ATCC 114; conditions: BHI agar, 35-37 °C, 20 to 24 hours, unit assumed
Procedure: as §1, §2, §3

SMILES | MIC [1] | MIC [2] | MIC [3] | MIC [4] | MIC [5] | MIC [7] | MIC [8] | MIC [9] | MIC [10] | MIC [11] | MIC [12] | MIC [13] | MIC [14] | MIC [15] | MIC [16] | MIC [17] | MIC [18] | MIC [20] | MIC [21] | MIC [22] | other results
CC[C@H]1OC(=O)[C@H](C)[C@@H](O[C@H]2C[C@@](C)(OC)[C@@H](O)[C@H](C)O2)[C@H](C)[C@@H](O[C@@H]2O[C@H](C)C[C@H](N(C)C)[C@H]2O)[C@](C)(O)C[C@@H](C)C(=O)[C@H](C)[C@@H](O)[C@]1(C)O [Ery. A, Erythromycin A, reference compound] | > 100 µg/mL | 50 µg/mL (≈ 68.1 µM) | 0.39 µg/mL (≈ 0.531 µM) | > 100 µg/mL | > 100 µg/mL | 0.2 µg/mL (≈ 0.273 µM) | > 100 µg/mL | >100 | > 100 | > 100 µg/mL | > 100 | > 100 | 0.39 µg/mL (≈ 0.531 µM) | > 100 µg/mL | 1.56 µg/mL (≈ 2.13 µM) | 0.05 µg/mL (≈ 0.0681 µM) | > 100 µg/mL | > 100 µg/mL | 0.05 µg/mL (≈ 0.0681 µM) | 100 µg/mL (≈ 136 µM) | MIC [6]: > 100 µg/mL; MIC [19]: 0.39 µg/mL (≈ 0.531 µM); MIC [23]: 100 µg/mL (≈ 136 µM); MIC [24]: 0.78 µg/mL (≈ 1.06 µM); MIC [25]: 0.2 µg/mL (≈ 0.273 µM); MIC [26]: 0.02 µg/mL (≈ 0.0273 µM); MIC [27]: 0.05 µg/mL (≈ 0.0681 µM); MIC [28]: 0.39 µg/mL (≈ 0.531 µM); MIC [29]: 3.1 µg/mL (≈ 4.22 µM); MIC [30]: > 100 µg/mL; MIC [31]: 3.1 µg/mL (≈ 4.22 µM)
CCCO[C@]1(C)C[C@@H](C)C(=O)[C@H](C)[C@@H](O)[C@](C)(O)[C@@H](CC)OC(=O)[C@H](C)[C@@H](O[C@H]2C[C@@](C)(OC)[C@@H](O)[C@H](C)O2)[C@H](C)[C@H]1O[C@@H]1O[C@H](C)C[C@H](N(C)C)[C@H]1O [Example 2, Compound of Formula (X): X is =O, R is propyl] | > 100 µg/mL | > 100 µg/mL | 6.2 µg/mL | > 100 µg/mL | > 100 µg/mL | 3.1 µg/mL | > 100 µg/mL | >100 | >100 | 0.1 µg/mL | 50 | >100 | 12.5 µg/mL | > 100 µg/mL | > 100 µg/mL | 3.1 µg/mL | > 100 µg/mL | > 100 µg/mL | 0.2 µg/mL | 6.2 µg/mL | MIC [6]: > 100 µg/mL; MIC [32]: 0.05 µg/mL; MIC [19]: 3.1 µg/mL; MIC [23]: > 100 µg/mL; MIC [24]: 1.56 µg/mL; MIC [25]: 3.1 µg/mL; MIC [26]: 0.05 µg/mL; MIC [27]: 0.2 µg/mL; MIC [28]: 1.56 µg/mL; MIC [29]: 6.2 µg/mL; MIC [30]: > 100 µg/mL; MIC [33]: > 100 µg/mL; MIC [31]: 25 µg/mL
CC[C@H]1OC(=O)[C@H](C)[C@@H](O[C@H]2C[C@@](C)(OC)[C@@H](O)[C@H](C)O2)[C@H](C)[C@@H](O[C@@H]2O[C@H](C)C[C@H](N(C)C)[C@H]2O)[C@](C)(OCC(C)=O)C[C@@H](C)C(=O)[C@H](C)[C@@H](O)[C@]1(C)O [Example 9, Compound of Formula (X); X is =O. R is 2-oxopropyl] | > 100 µg/mL | > 100 µg/mL | 3.1 µg/mL | > 100 µg/mL | > 100 µg/mL | 3.1 µg/mL | > 100 µg/mL | > 100 | > 100 | > 100 µg/mL | > 100 | > 100 | 3.1 µg/mL | > 100 µg/mL | 12.5 µg/mL | 3.1 µg/mL | > 100 µg/mL | > 100 µg/mL | 3.1 µg/mL | > 100 µg/mL | MIC [34]: 3.1 µg/mL; MIC [23]: > 100 µg/mL; MIC [26]: 3.1 µg/mL; MIC [27]: 3.1 µg/mL; MIC [28]: 3.1 µg/mL; MIC [29]: 12.5 µg/mL; MIC [30]: > 100 µg/mL; MIC [33]: 50 µg/mL

From patent EP1007530B1, “6-O-SUBSTITUTED ERYTHROMYCIN COMPOUNDS AND METHOD FOR MAKING SAME” (ABBOTT LABORATORIES, priority 1996, dated 1997)
